Test results: US6358967B1, “Ergoline amine derivatives with blood pressure lowering effect” (priority 1998, dated 2002)
Where a name gives a salt, the structure may show the parent alone.

Tests used:
normotensive Wistar rats = assay: Invasive blood pressure measurement in anesthetized rats, i.v. administration; format: in vivo, rat
Procedure: Male Wistar rats with a body weight (BW) of 300-450 g were used as experimental animals. The rats are anesthetized immediately before the experiment with 50 mg/kg pentobarbital Na intraperitoneally (i.p.) or 70 mg/kg inactin i.v. PE tubes are tied into the carotid artery and femoral vein.
(§1) To maintain the blood pressure and to prevent formation of thrombi in the PE tubes of the blood vessels, each hour 2.5 ml of heparinized 0.9% strength NaCl solution are infused through the femoral vein and 1.2 ml through the carotid artery.
The arterial blood pressure is measured invasively using a PONEMAH hemodynamic analyzer (HSE, March, Germany). Via the tube in the carotid artery, the arterial blood pressure is mechanoelectrically converted in a Statham transducer (ISOTEC), amplified in a Plugsys (DBA module, type 660), digitized in an A/D converter and input into the PC memory over defined time intervals. The values in the memory are then treated with an adapted algorithm in order to establish the blood pressure parameters to be calculated for heart rate, systolic, diastolic and mean blood pressure.
(§2) The ergoline derivatives are administered i.v. through the femoral vein as 5 percent EtOH/NaCl (0.9%) solution, 1 ml/kg in a dosage of 0.5 mg/kg test substance.

[1] = test system: normotensive Wistar rats after pretreatment with Ecolid; assay: Blood pressure testing after blockade of autonomic nerve tracts with Ecolid; format: in vivo, rat; settings: Table 2
Excerpt: Ecolid is a ganglionic blocker which competitively blocks the postsynaptic cholinergic (nicotinergic) receptors in the autonomic ganglia. This interrupts neurotransmission in the ganglia in both the para-sympathetic and sympathetic regions of the autonomic nervous system. The consequence thereof is, inter alia, a fall in blood pressure. It is possible in this way to differentiate central and peripheral (i.e. direct points of action on the smooth muscles) effects.
The experimental animals used were male Wistar rats with a BW of 300-450 g. The rats are anesthetized immediately before the experiment with 70 mg/kg inactin i.v. PE tubes are tied into the carotid artery and femoral vein.
as §1
Before testing the ergoline derivatives, the experimental animals were treated with Ecolid (dose: 0.5 mg/kg, i.v.).
as §2
The time stated in the table corresponds to the period between administration of Ecolid and injection of the test substances.

[2] = assessment class of duration, 0.5 mg/kg i.v., Table 1.1
[3] = assessment class of pressure fall, 0.5 mg/kg i.v., Table 1.1
[4] = change shown as arrow, Wistar rats, 0.5 mg/kg i.v., Table 1.1
[5] = duration of blood pressure effect, Wistar rats, 0.5 mg/kg i.v., Table 1.1
[6] = effect (fall) on arterial blood pressure, anesthetized Wistar rats, 0.5 mg/kg i.v., Table 1.1
[7] = effect (fall) on arterial blood pressure, Wistar rats pretreated with Ecolid 0.5 mg/kg i.v., test substance 0.5 mg/kg i.v.
[8] = effect (fall) on arterial blood pressure, Wistar rats, 0.5 mg/kg i.v., Table 1.2

Compound | Effect pressure/duration: duration (normotensive Wistar rats; [2]) | Effect pressure/duration: pressure (normotensive Wistar rats; [3]) | Heart rate (normotensive Wistar rats; [4]) | Duration (normotensive Wistar rats; [5]) | Diastol. pressure (normotensive Wistar rats; [6]) | Mean pressure (normotensive Wistar rats; [6]) | Systol. pressure (normotensive Wistar rats; [6]) | also measured
CN1CC(CNC(=O)c2ccc(C(=O)NCCCN3CCN(CCCN)CC3)cc2)CC2c3cccc4[nH]cc(c34)CC21.O=C(O)C(F)(F)F.O=C(O)C(F)(F)F.O=C(O)C(F)(F)F.O=C(O)C(F)(F)F (stereo not drawn) [Substance 9703125] | – | – | – | – | – | – | – | Diastol. pressure (normotensive Wistar rats; rat, in vivo, iv, 0.5 mg/kg): 14.0%; Duration (normotensive Wistar rats; rat, in vivo, iv, 0.5 mg/kg): 90 min; Effect pressure/duration: duration (normotensive Wistar rats; rat, in vivo, iv, 0.5 mg/kg): ↓/↓↓↓ (key: (↓): < 5 min; ↓: up to 10 min; ↓↓: up to 30 min; ↓↓↓: >30 min); Effect pressure/duration: pressure (normotensive Wistar rats; rat, in vivo, iv, 0.5 mg/kg): ↓/↓↓↓ (key: →: no effect to 5%; (↓): to 10%; ↓: to 20%; ↓↓: to 30%; ↓↓↓: >30%); Heart rate (normotensive Wistar rats; rat, in vivo, iv, 0.5 mg/kg): →; Mean pressure (normotensive Wistar rats; rat, in vivo, iv, 0.5 mg/kg): 13.7%; Systol. pressure (normotensive Wistar rats; rat, in vivo, iv, 0.5 mg/kg): 13.1%
CN1C[C@H](CN2CCC(=O)NC2=O)C[C@@H]2c3cccc4[nH]cc(c34)C[C@H]21 [Dihydro-1-[[6-methyl-ergolin-8b-yl]-methyl]2,4-(1H, 3H)-pyrimidinedione, reference compound] | ↓ (up to 10 min) | ↓↓↓ (>30%) | → | ca 10 min | 75.9% | 72.3% | 70.9% | Effect pressure/duration: duration ([1]; assessment class of duration, after Ecolid, 0.5 mg/kg i.v.): →/→ (no effect to 5%); Effect pressure/duration: pressure ([1]; assessment class of pressure fall, after Ecolid, 0.5 mg/kg i.v.): →/→ (no effect to 5%); Heart rate ([1]; change shown as arrow, rats pretreated with Ecolid, 0.5 mg/kg i.v.): →; Diastol. pressure [1, 7]: 0%; Mean pressure [1, 7]: 0%; Systol. pressure [1, 7]: 0%; Duration ([1]; rats pretreated with Ecolid, 0.5 mg/kg i.v.): 0 min
CC(C)[C@H]1C(=O)N2CCC[C@H]2[C@]2(O)O[C@](NC(=O)[C@@H]3C[C@@H]4c5cccc6[nH]cc(c56)C[C@H]4N(C)C3)(C(C)C)C(=O)N12 [Dihydroergocornine, reference compound] | (↓) (< 5 min) | ’ | → | 3 min | 4.3% | 3.3% | 5.0% | –
O=C(O)C(F)(F)F [TFA (equimolar), trifluoroacetic acid, reference compound] | (↓)/(↓) (< 5 min) | (↓)/(↓) (to 10%) | → | >1 min | 5.1% | 4.6% | 4.3% | –
Nc1cc(N2CCCCC2)nc(N)[n+]1[O-] [Minoxidil, reference compound] | ↓/↓ (up to 10 min) | ↓/↓ (to 20%) | → | ca 10 min | 8.1% | 7.1% | 6.6% | –
CN1CC(CNC(=O)c2ccc(SSc3ccc(C(=O)NC4CCC(N)CC4)cn3)nc2)CC2c3cccc4[nH]cc(c34)CC21.O=C(O)C(F)(F)F.O=C(O)C(F)(F)F (stereo not drawn) [Substance 9703155] | – | – | – | – | – | – | – | Effect pressure/duration: duration (normotensive Wistar rats; assessment class of duration, 0.5 mg/kg i.v., Table 1.2): ↓↓↓ (> 30 min); Effect pressure/duration: pressure (normotensive Wistar rats; assessment class of pressure fall, 0.5 mg/kg i.v., Table 1.2): ↓↓ (to 30%); Heart rate (normotensive Wistar rats; change shown as arrow, Wistar rats, 0.5 mg/kg i.v., Table 1.2): →; Duration (normotensive Wistar rats; duration of blood pressure effect, 0.5 mg/kg i.v., Table 1.2): ca 60 min; Diastol. pressure (normotensive Wistar rats; [8]): 25.9%; Mean pressure (normotensive Wistar rats; [8]): 26.9%; Systol. pressure (normotensive Wistar rats; [8]): 24.7%
CN1CC(CNC(=O)c2ccc(C(=O)NC3CCC(N)CC3)cc2)CC2c3cccc4[nH]cc(c34)CC21.O=C(O)C(F)(F)F.O=C(O)C(F)(F)F (stereo not drawn) [Substance 9703112] | ↓↓/↓↓ (up to 30 min) | ↓↓/↓↓ (to 30%) | → | 18 min | 31.7% | 29.2% | 25.2% | –
CN1CC(CNC(=O)C2CCC(C(=O)NCCCN3CCN(CCCN)CC3)CC2)CC2c3cccc4[nH]cc(c34)CC21.O=C(O)C(F)(F)F.O=C(O)C(F)(F)F.O=C(O)C(F)(F)F.O=C(O)C(F)(F)F (mixture of isomers) [Substance 9703133] | – | – | – | – | – | – | – | Diastol. pressure (normotensive Wistar rats; rat, in vivo, iv, 0.5 mg/kg): 50.0%; Duration (normotensive Wistar rats; rat, in vivo, iv, 0.5 mg/kg): ca 60 min; Effect pressure/duration: duration (normotensive Wistar rats; rat, in vivo, iv, 0.5 mg/kg): ↓↓↓/↓↓↓ (key: (↓): < 5 min; ↓: up to 10 min; ↓↓: up to 30 min; ↓↓↓: >30 min); Effect pressure/duration: pressure (normotensive Wistar rats; rat, in vivo, iv, 0.5 mg/kg): ↓↓↓/↓↓↓ (key: →: no effect to 5%; (↓): to 10%; ↓: to 20%; ↓↓: to 30%; ↓↓↓: >30%); Heart rate (normotensive Wistar rats; rat, in vivo, iv, 0.5 mg/kg): ↑; Mean pressure (normotensive Wistar rats; rat, in vivo, iv, 0.5 mg/kg): 45.4%; Systol. pressure (normotensive Wistar rats; rat, in vivo, iv, 0.5 mg/kg): 48.4%
